According to patent US20180369211A1, “METHODS AND COMPOSITIONS FOR TREATING NEURODEGENERATIVE DISORDERS” (Lysosomal Therapeutics Inc., priority 2016, published 2018):

Target: T1, acid ceramidase (Homo sapiens, UniProt Q13510)
T1 construct: host or cells: unnamed cells; lysate 'enriched with acid ceramidase'
T1 sequence (Q13510 22-395): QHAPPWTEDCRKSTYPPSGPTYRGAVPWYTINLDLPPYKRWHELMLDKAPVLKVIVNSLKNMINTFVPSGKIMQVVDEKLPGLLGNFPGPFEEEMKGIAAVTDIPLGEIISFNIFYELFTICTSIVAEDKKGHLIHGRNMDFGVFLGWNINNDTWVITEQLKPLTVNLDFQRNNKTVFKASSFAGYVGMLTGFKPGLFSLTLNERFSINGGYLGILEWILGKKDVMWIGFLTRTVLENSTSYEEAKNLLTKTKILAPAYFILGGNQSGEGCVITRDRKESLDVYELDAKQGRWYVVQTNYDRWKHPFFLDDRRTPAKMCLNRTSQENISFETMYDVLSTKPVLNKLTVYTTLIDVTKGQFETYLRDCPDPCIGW
Test: acid ceramidase fluorescent intensity assay with fluorogenic substrate Rbm 14-12
Assay type: biochemical
Conditions: cell lysates enriched with acid ceramidase, 1 hour pre-incubation, pH 4.5, substrate Rbm 14-12 at 6.3 μM, room temperature, 1 or two hours; read-out: average IC50 value for the 1 and 2 hour time points
Description: Inhibition of acid ceramidase activity by compound 25 of Table 1 was evaluated in a fluorescent intensity assay using a fluorogenic substrate Rbm 14-12 […]. Compound 25 was incubated with cell lysates enriched with acid ceramidase for 1 hour in an assay buffer containing 50 mM NaOAc and 100 mM NaCl at pH 4.5. The reaction was initiated by the addition of the substrate at a final concentration of 6.3 μM and the mixture was incubated at room temperature for 1 or two hours. At the appropriate time, the reaction was quenched by the addition of methanol and treated with NaIO4 (fresh 2.5 mg/ml solution was made in 100 mM glycine/NaOH buffer, pH 10.6), followed by incubation for 1 hour at room temperature. Fluorescent intensity was measured using a plate reader at ex 355 nm and em 460 nm.

- IC50: 250 to 500 nM
Compound: O=C(NCCCCc1ccccc1)n1c(=O)oc2cc(-c3ccc(F)cc3)ccc21 [compound 25, 6-(4-fluorophenyl)-2-oxo-N-(4-phenylbutyl)-1,3-benzoxazole-3-carboxamide]
